Data on four molecules can be found in PubChem BioAssay AID1259407 (Chemical Carcinogenesis Research Information System (CCRIS), 2018).

This series concerns CCRIS mutagenicity, Ames/micronucleus/aberration tests. The series can be described thus: CCRIS mutagenicity studies.
Setting [1] is: Test System: AMES SALMONELLA TYPHIMURIUM, Strain/Indicator: TA98, Metabolic Activation: NONE, Method: STANDARD PLATE.
[2] abbreviates: Test System: AMES SALMONELLA TYPHIMURIUM, Strain/Indicator: TA100, Metabolic Activation: NONE, Method: STANDARD PLATE.
[3] abbreviates: Test System: AMES SALMONELLA TYPHIMURIUM, Strain/Indicator: TA100, Metabolic Activation: RAT, LIVER, S-9, AROCLOR 1254, Method: STANDARD PLATE.

The source made the active and inactive calls. The rule behind the calls is not given here.

With `CC/C=C/C=C/C=C/C=C/C=C/OC[C@@H](O)CO`, the mutagenic call was “active; positive” under setting [1]; “inactive; negative” (Test System: AMES SALMONELLA TYPHIMURIUM, Strain/Indicator: TA98, Metabolic Activation: NONE, Method: STANDARD PLATE (AEROBIC)); “active; positive” (Test System: AMES SALMONELLA TYPHIMURIUM, Strain/Indicator: TA98, Metabolic Activation: NONE, Method: STANDARD PLATE (ANAEROBIC)); “inactive; negative” (Test System: AMES SALMONELLA TYPHIMURIUM, Strain/Indicator: TA98, Metabolic Activation: RAT, LIVER, S-9, AROCLOR 1254, Method: STANDARD PLATE); “active; positive” (Test System: AMES SALMONELLA TYPHIMURIUM, Strain/Indicator: TA100, Metabolic Activation: NONE, Method: FLUCTUATION TEST (AEROBIC)); “active; positive” (Test System: AMES SALMONELLA TYPHIMURIUM, Strain/Indicator: TA100, Metabolic Activation: NONE, Method: FLUCTUATION TEST (ANAEROBIC)). Also, the mutagenic call runs as follows: under setting [2], “active; positive”; (Test System: AMES SALMONELLA TYPHIMURIUM, Strain/Indicator: TA100, Metabolic Activation: NONE, Method: STANDARD PLATE (AEROBIC)) “active; positive”; (Test System: AMES SALMONELLA TYPHIMURIUM, Strain/Indicator: TA100, Metabolic Activation: NONE, Method: STANDARD PLATE (ANAEROBIC)) “inactive; negative”; (Test System: AMES SALMONELLA TYPHIMURIUM, Strain/Indicator: TA100, Metabolic Activation: RAT, LIVER, S-9, AROCLOR 1254, Method: PREINCUBATION) “active; positive”; under setting [3], “active; positive”; (Test System: AMES SALMONELLA TYPHIMURIUM, Strain/Indicator: TA102, Metabolic Activation: NONE, Method: STANDARD PLATE) “active; positive”. Besides, the mutagenic call was “active; positive” (Test System: AMES SALMONELLA TYPHIMURIUM, Strain/Indicator: TA104, Metabolic Activation: NONE, Method: STANDARD PLATE); “active; positive” (Test System: AMES SALMONELLA TYPHIMURIUM, Strain/Indicator: TA104, Metabolic Activation: RAT, LIVER, S-9, AROCLOR 1254, Method: STANDARD PLATE); “active; positive” (Test System: E. COLI, Strain/Indicator: WP2 UVRA (PKM101), Metabolic Activation: NONE, Method: STANDARD PLATE (AEROBIC)); “inactive; negative” (Test System: E. COLI, Strain/Indicator: WP2 UVRA (PKM101), Metabolic Activation: NONE, Method: STANDARD PLATE (ANAEROBIC)); “active; positive” (Test System: MOUSE LYMPHOMA, Strain/Indicator: L5178Y (TK+/TK-), Metabolic Activation: NONE, Method: SUSPENSION/PLATE); “active; positive” (Test System: MOUSE LYMPHOMA, Strain/Indicator: L5178Y (TK+/TK-), Metabolic Activation: RAT, LIVER, S-9, AROCLOR 1254, Method: SUSPENSION/PLATE). Besides, the mutagenic call was “active; positive” (Test System: Mouse lymphoma, Strain/Indicator: L5178Y (tk+/tk-), Metabolic Activation: None, Method: Suspension/plate) and “inactive; negative” (Test System: Mouse lymphoma, Strain/Indicator: L5178Y (tk+/tk-), Metabolic Activation: Rat, Liver, S-9, Aroclor 1254, Method: Suspension/plate).
`OC(c1ccc(Cl)cc1)(c1ccc(Cl)cc1)C(Cl)(Cl)Cl`: the mutagenic call is, setting by setting: (End Point: IN VITRO CHROMOSOMAL ABERRATIONS, Test System: CHINESE HAMSTER OVARY CELLS, Metabolic Activation: NONE) “inactive; negative”; (End Point: IN VITRO CHROMOSOMAL ABERRATIONS, Test System: CHINESE HAMSTER OVARY CELLS, Metabolic Activation: RAT, LIVER, S-9, AROCLOR 1254) “inactive; negative”; (End Point: IN VIVO MICRONUCLEUS, Test System: BONE MARROW POLYCHROMATIC ERYTHROCYTES, Species: MOUSE, Strain/Sex: SWISS/MALE, FEMALE, Route: IP 2X IN AQUEOUS SUSPENSION WITHIN 24 HR) “inactive; negative”.
`O=C1c2cccc(S(=O)(=O)O)c2C(=O)c2cccc([N+](=O)[O-])c21`: the mutagenic call reads like this: under setting [1], “active; positive”; under setting [2], “inactive; negative”; under setting [3], “inactive; negative”; (Test System: AMES SALMONELLA TYPHIMURIUM, Strain/Indicator: TA1535, Metabolic Activation: NONE, Method: STANDARD PLATE) “inactive; negative”; (Test System: AMES SALMONELLA TYPHIMURIUM, Strain/Indicator: TA1535, Metabolic Activation: RAT, LIVER, S-9, AROCLOR 1254, Method: STANDARD PLATE) “inactive; negative”; (Test System: AMES SALMONELLA TYPHIMURIUM, Strain/Indicator: TA1537, Metabolic Activation: NONE, Method: STANDARD PLATE) “inactive; negative”. Further, the mutagenic call reads like this: (Test System: AMES SALMONELLA TYPHIMURIUM, Strain/Indicator: TA1537, Metabolic Activation: RAT, LIVER, S-9, AROCLOR 1254, Method: STANDARD PLATE) “inactive; negative”; (Test System: AMES SALMONELLA TYPHIMURIUM, Strain/Indicator: TA1538, Metabolic Activation: NONE, Method: STANDARD PLATE) “active; positive”; (Test System: AMES SALMONELLA TYPHIMURIUM, Strain/Indicator: TA1978, Metabolic Activation: NONE, Method: STANDARD PLATE) “inactive; negative”.
Consider `O=[N+]([O-])c1cccc2ccccc12`, for which the mutagenic call under setting [1] is “active; positive”; the mutagenic call (Test System: E. COLI, Strain/Indicator: WP2 UVRA, Metabolic Activation: HAMSTER, LIVER, S-9, AROCLOR 1254, Method: STANDARD PLATE) was “inactive; negative”; the mutagenic call (Test System: E. COLI, Strain/Indicator: WP2 UVRA, Metabolic Activation: MOUSE, LIVER, S-9, AROCLOR 1254, Method: STANDARD PLATE) was “inactive; negative”; the mutagenic call (Test System: E. COLI, Strain/Indicator: WP2 UVRA, Metabolic Activation: MOUSE, LIVER, S-9, Method: STANDARD PLATE) is “inactive; negative”; the mutagenic call (Test System: E. COLI, Strain/Indicator: WP2 UVRA, Metabolic Activation: NONE, Method: STANDARD PLATE) is “inactive; negative”; the mutagenic call (Test System: E. COLI, Strain/Indicator: WP2 UVRA, Metabolic Activation: RAT, LIVER, S-9, AROCLOR 1254, Method: STANDARD PLATE) was “inactive; negative”. In addition, the mutagenic call (Test System: E. COLI, Strain/Indicator: WP2 UVRA, Metabolic Activation: RAT, LIVER, S-9, Method: STANDARD PLATE) is “inactive; negative”.
